Assay results published in patent US20230203059A1, “MACROCYCLIC JAK INHIBITOR AND USES THEREOF” (Biopolar Hongye (Guangdong) Pharmaceutical Co. Ltd., priority 2020, published 2023).

Experiments:
Assay type in all cases: biochemical
JAK2 = JAK2 (Homo sapiens, UniProt O60674); assay: JAK kinase activity, homogeneous time-resolved fluorescence (JAK2 reaction system); settings: ATP 2 μM, JAK2 protein 0.01 ng/μL
Description: (§1) The activity measurement method of JAK kinase was to use homogeneous time-resolved fluorescence technique. The reaction was performed in 384 shallow well plates with a total reaction volume of 10 μL. The mixture of kinase protein, compound, ATP and substrate was carried out in a reaction buffer of 50 mM Hepes (pH7.0), NaN3 0.02%, BSA 0.01%, 0.1 mM Orthocanadate, 5 mM MgCl2, and 1 mM DTT. After reacting for 1 hour, an antibody capable of recognizing substrate phosphorylation, dye XL-615 and detection buffer (Cisbio) containing EDTA were added to the system. The reaction signal of kinase was detected by PE company's porous plate detector. The parameter settings were excitation light at 320 nm, emission light at 615 nm and 665 nm. The activity of JAK is indirectly reflected by the signal ratio of 665 nm and 615 nm. In the reaction, the background well without enzyme and the total enzyme activity well without compound were set.
(§2) The IC50 value of the compound inhibiting protein was obtained by the formula: Y=100/(1+10^((Log IC50−X)*HillSlope)). In JAK1 reaction system, the concentration of ATP was 2 μM, and the concentration of JAK1 protein was 0.2 ng/μL.
In JAK2 reaction system, the concentration of ATP was 2 μM, and the concentration of JAK2 protein was 0.01 ng/μL.

JAK1 = JAK1 (Homo sapiens, UniProt P23458); assay: JAK kinase activity, homogeneous time-resolved fluorescence (JAK1 reaction system); settings: ATP 2 μM, JAK1 protein 0.2 ng/μL; read-out: JAK 1 activity
Description: as §1, §2

JAK3 = molecular target: T1, JAK3 (Homo sapiens, UniProt P52333); assay: JAK kinase activity, homogeneous time-resolved fluorescence (JAK3 reaction system); settings: ATP 2 μM, JAK3 protein 0.04 ng/μL; read-out: JAK 3 activity
T1 sequence (P52333 1-1124): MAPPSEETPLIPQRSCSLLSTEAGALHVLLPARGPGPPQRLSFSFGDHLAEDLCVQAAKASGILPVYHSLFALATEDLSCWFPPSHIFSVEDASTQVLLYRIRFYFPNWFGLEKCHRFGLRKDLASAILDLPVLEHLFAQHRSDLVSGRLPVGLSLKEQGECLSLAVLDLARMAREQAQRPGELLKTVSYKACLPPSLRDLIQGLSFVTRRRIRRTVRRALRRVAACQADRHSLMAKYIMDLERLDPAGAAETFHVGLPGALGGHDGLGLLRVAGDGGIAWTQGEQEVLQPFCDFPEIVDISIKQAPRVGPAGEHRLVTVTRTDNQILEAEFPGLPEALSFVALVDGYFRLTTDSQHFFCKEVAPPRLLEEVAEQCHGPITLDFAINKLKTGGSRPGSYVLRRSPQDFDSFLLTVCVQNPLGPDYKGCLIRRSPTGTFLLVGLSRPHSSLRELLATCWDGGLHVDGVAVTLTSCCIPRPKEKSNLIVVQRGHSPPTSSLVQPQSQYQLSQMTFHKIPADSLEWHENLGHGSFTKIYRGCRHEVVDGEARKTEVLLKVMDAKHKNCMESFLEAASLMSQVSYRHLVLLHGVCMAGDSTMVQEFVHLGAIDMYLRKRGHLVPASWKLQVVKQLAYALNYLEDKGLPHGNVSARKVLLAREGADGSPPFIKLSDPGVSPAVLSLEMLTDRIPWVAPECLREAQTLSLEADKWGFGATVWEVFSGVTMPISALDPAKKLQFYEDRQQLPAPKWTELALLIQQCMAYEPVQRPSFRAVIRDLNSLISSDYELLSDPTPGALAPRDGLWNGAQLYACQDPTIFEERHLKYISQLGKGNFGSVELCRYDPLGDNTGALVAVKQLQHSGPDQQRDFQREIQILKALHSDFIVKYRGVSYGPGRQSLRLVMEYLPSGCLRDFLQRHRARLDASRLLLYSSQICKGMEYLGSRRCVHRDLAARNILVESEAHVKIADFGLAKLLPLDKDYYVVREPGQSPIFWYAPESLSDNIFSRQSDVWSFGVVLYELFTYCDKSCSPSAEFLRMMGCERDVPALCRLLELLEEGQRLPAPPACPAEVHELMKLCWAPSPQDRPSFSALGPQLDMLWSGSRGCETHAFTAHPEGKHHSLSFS
Description: as §1, with “The reaction was performed in 384 shallow well plates with a total reaction volume of 10 μL.” left out, “After reacting for 1 hour, an antibody capable of recognizing substrate phosphorylation, dye XL-615 and detection buffer (Cisbio) containing EDTA were added to the system.” left out, “set. […]” for “set.”
In JAK3 reaction system, the concentration of ATP was 2 μM, and the concentration of JAK3 protein was 0.04 ng/μL.

TYK2 = TYK2 (Homo sapiens, UniProt P29597); assay: JAK kinase activity, homogeneous time-resolved fluorescence (TYK2 reaction system); settings: ATP 2 μM, TYK2 protein 0.2 ng/μL; read-out: TYK 2 activity
Description: as §1, §2
In TYK2 reaction system, the concentration of ATP was 2 μM, and the concentration of TYK2 protein was 0.2 ng/μL.

TYK2, sequence (P29597 whole entry): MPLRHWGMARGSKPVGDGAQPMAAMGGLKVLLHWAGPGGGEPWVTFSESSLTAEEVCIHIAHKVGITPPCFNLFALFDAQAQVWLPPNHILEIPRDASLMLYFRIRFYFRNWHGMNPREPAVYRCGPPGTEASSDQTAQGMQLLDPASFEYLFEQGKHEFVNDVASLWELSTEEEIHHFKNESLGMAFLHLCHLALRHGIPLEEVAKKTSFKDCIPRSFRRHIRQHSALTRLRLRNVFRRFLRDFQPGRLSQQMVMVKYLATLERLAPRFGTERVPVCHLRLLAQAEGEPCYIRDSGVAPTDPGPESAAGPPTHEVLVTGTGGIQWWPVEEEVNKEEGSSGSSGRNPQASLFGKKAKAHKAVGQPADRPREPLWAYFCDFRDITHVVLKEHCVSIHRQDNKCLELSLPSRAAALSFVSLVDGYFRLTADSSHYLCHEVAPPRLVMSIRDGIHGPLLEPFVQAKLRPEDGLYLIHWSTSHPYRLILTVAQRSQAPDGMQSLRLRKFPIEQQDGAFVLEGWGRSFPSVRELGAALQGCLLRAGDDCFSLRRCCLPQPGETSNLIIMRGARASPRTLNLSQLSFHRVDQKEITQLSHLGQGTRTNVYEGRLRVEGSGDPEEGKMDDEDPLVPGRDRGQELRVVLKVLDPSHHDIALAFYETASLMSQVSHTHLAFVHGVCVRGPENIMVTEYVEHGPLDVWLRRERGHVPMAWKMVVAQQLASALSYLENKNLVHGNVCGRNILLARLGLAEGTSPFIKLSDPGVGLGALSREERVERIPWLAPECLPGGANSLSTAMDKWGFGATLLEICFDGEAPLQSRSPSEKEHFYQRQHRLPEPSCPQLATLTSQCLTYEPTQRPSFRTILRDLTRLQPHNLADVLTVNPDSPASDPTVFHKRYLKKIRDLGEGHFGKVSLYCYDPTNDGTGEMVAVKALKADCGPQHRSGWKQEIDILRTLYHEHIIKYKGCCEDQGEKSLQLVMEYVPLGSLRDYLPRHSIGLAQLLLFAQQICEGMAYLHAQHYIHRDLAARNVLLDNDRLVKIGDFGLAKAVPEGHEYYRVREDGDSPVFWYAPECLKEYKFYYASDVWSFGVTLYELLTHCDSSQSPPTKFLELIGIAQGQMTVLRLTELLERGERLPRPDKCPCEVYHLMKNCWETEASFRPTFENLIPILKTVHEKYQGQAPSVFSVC
JAK1, sequence (P23458 whole entry): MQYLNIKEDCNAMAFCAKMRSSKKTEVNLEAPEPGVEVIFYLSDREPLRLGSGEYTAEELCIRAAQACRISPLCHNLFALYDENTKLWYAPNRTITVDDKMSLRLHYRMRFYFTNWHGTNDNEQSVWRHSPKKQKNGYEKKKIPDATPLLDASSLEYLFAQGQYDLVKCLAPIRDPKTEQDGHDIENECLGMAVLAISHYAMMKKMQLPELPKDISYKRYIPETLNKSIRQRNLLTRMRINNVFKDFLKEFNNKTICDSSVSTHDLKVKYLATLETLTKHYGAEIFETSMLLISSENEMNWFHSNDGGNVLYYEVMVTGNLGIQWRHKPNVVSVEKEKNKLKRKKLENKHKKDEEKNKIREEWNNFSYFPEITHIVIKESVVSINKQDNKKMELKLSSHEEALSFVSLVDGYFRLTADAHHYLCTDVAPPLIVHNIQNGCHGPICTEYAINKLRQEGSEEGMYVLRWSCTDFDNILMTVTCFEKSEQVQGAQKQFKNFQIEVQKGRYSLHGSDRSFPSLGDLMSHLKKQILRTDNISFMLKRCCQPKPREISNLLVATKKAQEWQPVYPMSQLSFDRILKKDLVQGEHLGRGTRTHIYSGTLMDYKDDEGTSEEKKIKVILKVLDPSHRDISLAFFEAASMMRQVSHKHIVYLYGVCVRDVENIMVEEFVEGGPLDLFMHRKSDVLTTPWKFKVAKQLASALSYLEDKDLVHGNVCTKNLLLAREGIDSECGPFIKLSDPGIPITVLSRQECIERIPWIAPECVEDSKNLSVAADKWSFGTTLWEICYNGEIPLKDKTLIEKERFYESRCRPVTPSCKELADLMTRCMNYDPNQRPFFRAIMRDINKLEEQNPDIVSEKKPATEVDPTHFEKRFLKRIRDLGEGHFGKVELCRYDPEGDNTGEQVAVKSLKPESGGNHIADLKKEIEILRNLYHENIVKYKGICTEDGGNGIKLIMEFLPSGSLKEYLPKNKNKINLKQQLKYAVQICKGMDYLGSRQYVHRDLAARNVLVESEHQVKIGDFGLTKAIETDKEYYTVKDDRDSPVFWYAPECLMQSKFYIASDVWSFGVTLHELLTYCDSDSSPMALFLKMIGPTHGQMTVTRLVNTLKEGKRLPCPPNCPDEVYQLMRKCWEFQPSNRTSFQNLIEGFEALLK
JAK2, sequence (O60674 whole entry): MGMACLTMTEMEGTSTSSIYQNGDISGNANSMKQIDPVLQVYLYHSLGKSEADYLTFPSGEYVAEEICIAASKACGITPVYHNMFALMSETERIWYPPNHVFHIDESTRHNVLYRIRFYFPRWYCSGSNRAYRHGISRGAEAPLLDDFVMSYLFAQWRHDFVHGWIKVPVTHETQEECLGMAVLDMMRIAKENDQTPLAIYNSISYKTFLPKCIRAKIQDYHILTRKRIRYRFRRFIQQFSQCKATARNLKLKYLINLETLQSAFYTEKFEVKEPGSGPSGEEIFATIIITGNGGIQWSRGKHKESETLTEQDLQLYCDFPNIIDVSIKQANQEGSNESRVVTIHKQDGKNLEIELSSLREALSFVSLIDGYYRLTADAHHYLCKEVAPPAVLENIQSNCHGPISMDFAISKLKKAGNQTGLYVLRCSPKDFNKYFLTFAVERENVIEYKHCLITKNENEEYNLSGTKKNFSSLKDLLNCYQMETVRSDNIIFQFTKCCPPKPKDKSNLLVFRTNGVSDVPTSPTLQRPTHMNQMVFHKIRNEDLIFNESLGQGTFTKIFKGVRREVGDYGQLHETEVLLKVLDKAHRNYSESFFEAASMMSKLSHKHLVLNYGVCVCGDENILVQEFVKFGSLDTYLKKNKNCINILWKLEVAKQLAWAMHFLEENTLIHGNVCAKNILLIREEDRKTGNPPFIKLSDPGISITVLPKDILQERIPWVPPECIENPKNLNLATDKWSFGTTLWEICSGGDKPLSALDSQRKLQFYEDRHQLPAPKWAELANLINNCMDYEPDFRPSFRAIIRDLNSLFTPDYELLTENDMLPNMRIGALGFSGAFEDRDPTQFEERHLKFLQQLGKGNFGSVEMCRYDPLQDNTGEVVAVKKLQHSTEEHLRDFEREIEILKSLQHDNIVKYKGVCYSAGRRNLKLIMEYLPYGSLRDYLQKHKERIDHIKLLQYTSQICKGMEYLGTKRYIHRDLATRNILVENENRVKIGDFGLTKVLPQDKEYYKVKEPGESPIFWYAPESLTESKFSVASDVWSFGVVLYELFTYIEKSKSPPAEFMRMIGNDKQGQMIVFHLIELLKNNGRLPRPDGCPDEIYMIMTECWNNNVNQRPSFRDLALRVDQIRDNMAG

Compound | IC50 (JAK2) | IC50 (JAK1) | IC50 (JAK3) | IC50 (TYK2)
O=C1NCCCCCc2cc(ccc2N2CCOCC2)Nc2nccc(n2)-c2ccc1cc2 [Example 32, 4^4-morpholin-3,11-diaza-2(4,2)-pyri-midina-1(1,4),4(1,3)-dibenzenacyclo-dodecaphan-11-one] | < 10 nM | 101 to 1000 nM | 11 to 100 nM | 101 to 1000 nM
COc1ccc2cc1COCCCCNC(=O)c1ccc(c(C)c1)-c1nc(ncc1C)N2 [Example 33, 1^2,2^5-dimethyl-4^4-methoxy-6-oxa-3,11-diaza-2(4,2)-pyrimidina-1(1,4),4(1,3)-dibenzenacyclododecaphan-12-one] | 1000 to 10000 nM | 1000 to 10000 nM | 1000 to 10000 nM | > 10000 nM
Cc1cc2ccc1-c1nc(ncc1C)Nc1ccc(Cl)c(c1)COCCCCNC2=O [Example 35, 1^2,2^5-dimethyl-4^4-chloro-6-oxa-3,11-diaza-2(4,2)-pyrimidina-1(1,4),4(1,3)-dibenzenacyclododecaphan-12-one] | > 10000 nM | > 10000 nM | 1000 to 10000 nM | > 10000 nM
Cc1cc2ccc1-c1nc(ncc1C)Nc1cccc(c1)COCCCCNC2=O [Example 36, 1^2,2^5-dimethyl-6-oxa-3,11-diaza-2(4,2)-pyrimidina-1(1,4),4(1,3)-diben-zenacyclododecaphan-12-one] | > 10000 nM | > 10000 nM | 1000 to 10000 nM | > 10000 nM
Cc1ccc2cc1COCCCCNC(=O)c1ccc(c(C)c1)-c1nc(ncc1C)N2 [Example 37, 1^2,2^5,4^4-trimethyl-6-oxa-3,11-diaza-2(4,2)-pyrimidina-1(1,4),4(1,3)-di-benzenacyclododecaphan-12-one] | > 10000 nM | > 10000 nM | 1000 to 10000 nM | > 10000 nM
Cc1ccc2cc1COCCCCNC(=O)c1ccc(c(C)c1)-c1ccnc(n1)N2 [Example 39, 1^2,4^4-dimethyl-6-oxa-3,11-diaza-2(4,2)-pyrimidina-1(1,4),4(1,3)-diben-zenacyclododecaphan-12-one] | 1000 to 10000 nM | 1000 to 10000 nM | 101 to 1000 nM | > 10000 nM
Cc1cc2ccc1-c1ccnc(n1)Nc1cccc(c1)COCCCCNC2=O [Example 40, 1^2-methyl-6-oxa-3,11-diaza-2(4,2)-pyrimidina-1(1,4),4(1,3)-diben-zenacyclododecaphan-12-one] | 1000 to 10000 nM | 1000 to 10000 nM | 101 to 1000 nM | > 10000 nM
Cc1cc2ccc1-c1nc(ncc1C)Nc1ccc(F)c(c1)COCCCCNC2=O [Example 45, 1^2,2^5-dimethyl-4^4-fluoro-6-oxa-3,11-diaza-2(4,2)-pyrimidina-1(1,4),4(1,3)-dibenzenacyclododecaphan-12-one] | 1000 to 10000 nM | 1000 to 10000 nM | 1000 to 10000 nM | > 10000 nM

Further lines, results first:

IC50 (JAK2) | IC50 (JAK1) | IC50 (JAK3) | IC50 (TYK2) | Compound
11 to 100 nM | 101 to 1000 nM | 11 to 100 nM | 101 to 1000 nM | CN(C)c1ccc2cc1COCCCCNC(=O)c1ccc(c(F)c1)-c1ccnc(n1)N2 [Example 28, 1^2-fluoro-4^4-dimethylamino-6-oxa-3,11-diaza-2(4,2)-pyrimidina-1(1,4),4(1,3)-dibenzenacyclododecaphan-12-one]
11 to 100 nM | 101 to 1000 nM | 11 to 100 nM | 1000 to 10000 nM | O=C1NCCCCOCc2cc(ccc2N2CCCCC2)Nc2nccc(n2)-c2ccc1cc2F [Example 29, 1^2-fluoro-4^4-(piperidin-1-)-6-oxa-3,11-diaza-2(4,2)-pyrimidina-1(1,4),4(1,3)-dibenzenacyclododecaphan-12-one]
11 to 100 nM | 101 to 1000 nM | 11 to 100 nM | 101 to 1000 nM | O=C1NCCCCOCc2cc(ccc2N2CCOCC2)Nc2nccc(n2)-c2ccc1cc2Cl [Example 30, 1^2-chloro-4^4-morpholin-6-oxa-3,11-diaza-2(4,2)-pyrimidina-1(1,4),4(1,3)-dibenzenacyclododecaphan-12-one]
11 to 100 nM | 101 to 1000 nM | < 10 nM | 101 to 1000 nM | Nc1cc2ccc1-c1ccnc(n1)Nc1ccc(N3CCOCC3)c(c1)COCCCCNC2=O [Example 31, 1^2-amino-4^4-morpholin-6-oxa-3,11-diaza-2(4,2)-pyrimidina-1(1,4),4(1,3)-dibenzenacyclododecaphan-12-one]
101 to 1000 nM | 101 to 1000 nM | 11 to 100 nM | 1000 to 10000 nM | O=C1NCCCCOCc2cc(ccc2N2CCCC2)Nc2nccc(n2)-c2ccc1cc2F [Example 34, 1^2-fluoro-4^4-(pyrrolidin-1-)-6-oxa-3,11-diaza-2(4,2)-pyrimidina-1(1,4),4(1,3)-dibenzenacyclododecaphan-12-one]
101 to 1000 nM | 101 to 1000 nM | 101 to 1000 nM | 1000 to 10000 nM | Cc1ccc2cc1COCCCCNC(=O)c1ccc(c(F)c1)-c1ccnc(n1)N2 [Example 38, 1^2-fluoro-4^4-methyl-6-oxa-3,11-diaza-2(4,2)-pyrimidina-1(1,4),4(1,3)-di-benzenacyclododecaphan-12-one]
101 to 1000 nM | 1000 to 10000 nM | 101 to 1000 nM | 1000 to 10000 nM | O=C1NCCCCOCc2cc(ccc2N2CCOCC2)Nc2nccc(n2)-c2ccc1cc2I [Example 41, 1^2-iodine-4^4-morpholin-6-oxa-3,11-diaza-2(4,2)-pyrimidina-1(1,4),4(1,3)-dibenzenacyclododephan-12-one]
101 to 1000 nM | 1000 to 10000 nM | 11 to 100 nM | 101 to 1000 nM | Cc1cc2ccc1-c1ccnc(n1)Nc1ccc(N3CCCCC3)c(c1)COCCCCNC2=O [Example 42, 1^2-methyl-4^4-(piperidin-1-)-6-oxa-3,11-diaza-2(4,2)-pyrimidina-1(1,4),4(1,3)-dibenzenacyclododecaphan-12-one]
1000 to 10000 nM | 1000 to 10000 nM | 101 to 1000 nM | > 10000 nM | Cc1ccc2cc1COCCCCNC(=O)c1ccc(c(N)c1)-c1ccnc(n1)N2 [Example 43, 1^2-amino-4^4-methyl-6-oxa-3,11-dia-za-2(4,2)-pyrimidina-1(1,4),4(1,3)-dibenzenacyclododecaphan-12-one]
101 to 1000 nM | 1000 to 10000 nM | 11 to 100 nM | 1000 to 10000 nM | Cc1cc2ccc1-c1ccnc(n1)Nc1ccc(OC3CCCCC3)c(c1)COCCCCNC2=O [Example 44, 1^2-methyl-4^4-cyclohexyloxy-6-oxa-3,11-diaza-2(4,2)-pyrimidina-1(1,4)-4(1,3)-dibenzenacyclododecaphan-12-one]
